{
  "source": "patent US20060293378A1",
  "about": "“Method of lowering intraocular pressure” (priority 2005, published 2006)",
  "tested_on": "intraocular pressure",
  "assay": "Intraocular pressure in rabbits after injection of an aqueous suspension into the right eye, compared with untreated left eyes",
  "assay_type": "in vivo",
  "details": "suspension of 2 mg/mL compound with 7.5 mg/mL sodium carboxymethylcellulose injected into right eyes, dosages 60 μg, 100 μg and 140 μg, versus untreated left eyes, maintained over the 14 days of the test, FIGS. 1 to 3",
  "procedure": "An aqueous suspension was produced containing 2 mg/mL of compound 21 illustrated above together with 7.5 mg/mL of sodium carboxymethylcellulose.",
  "data": [
    {"smiles": "CC(C)OCc1ccc2c(c1)c1c3c(c4c(c1n2CCCOC(=O)CN(C)C)Cc1ccccc1-4)C(=O)NC3", "note": "[Compound 21]", "values": [
      {"measurement": "effect on intraocular pressure over time", "value": "significantly increased lowering of intraocular pressure"}
    ]}
  ]
}
